The values below come from article PMC12524942, “Efficient Hydrolysis of Dichlorvos in Water by Stenotrophomonas acidaminiphila G1 and Methyl Parathion Hydrolase” (International Journal of Molecular Sciences, 2025).

This experiment deals with T1, MPD (methyl parathion hydrolase) (Stenotrophomonas sp. YC-1, UniProt Q0PWQ4).
T1 construct: full ORF (primers from […] to stop; locus Chr1:1174990-1175985, 996 bp), pET28a EcoRI/HindIII, His tag, E. coli BL21(DE3); 331 residues per monomer
Briefly: UPLC of residual DDVP, Michaelis-Menten fit. The following applies: 37 °C, 1 min; DDVP 0.01 to 0.04 mM; enzyme refolded from urea. The format is biochemical.

T1 sequence (Q0PWQ4 entry or part of it): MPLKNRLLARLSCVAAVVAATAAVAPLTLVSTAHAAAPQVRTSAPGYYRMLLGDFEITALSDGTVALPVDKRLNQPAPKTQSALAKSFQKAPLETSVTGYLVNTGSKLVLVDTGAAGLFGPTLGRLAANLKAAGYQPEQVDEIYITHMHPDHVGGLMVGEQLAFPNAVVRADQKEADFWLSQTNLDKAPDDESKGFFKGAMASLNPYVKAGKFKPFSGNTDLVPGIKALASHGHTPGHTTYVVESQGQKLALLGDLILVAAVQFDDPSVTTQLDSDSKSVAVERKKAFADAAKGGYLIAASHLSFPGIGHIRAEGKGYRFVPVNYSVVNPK

In the case of `COP(=O)(OC)OC=C(Cl)Cl` [DDVP, Dichlorvos], the Km is 99 µM.
